Data taken from patent US9855270B2, “Methods and compositions for modulating estrogen receptor mutants” (priority 2014, dated 2018).
Read-outs that look alike come from different tables or passages of the source.

Key:
Assay in all cases: cells
Format in all cases: cell-based
Design in all cases: Percent inhibition compared to vehicle: concentration or dose not given beside the values
[1] = tested on: MCF-7 cells stably expressing EF1 HA-ER-α E380Q; conditions: for Percent inhibition compared to vehicle / Efficacy (Emax): EF1 HA-ER-α E380Q; for Percent inhibition compared to vehicle: 5-Day Incubation; for Efficacy (Emax): Day 5 relative to Day 0; for EC50: Homo sapiens, MCF7, EF1 HA-ER-α E380Q, read-out: Potency (EC50; nM)
Source text: (§1) MCF-7 Mutant ER-α Stable Cell Line Generation: MCF-7 cells stably expressing wild-type or ER-α mutants were generated by subcloning ESR1 wild-type and mutant cDNAs containing an amino terminal hemagglutinin tag into pCDH-EF1-MCS-(PGK-Puro) (referred to as EF1 HA-ER-α) and pCDH-UbC-MCS-EF1-Hygro (referred to as UbC HA-ER-α) (System Biosciences). The resulting plasmids, in addition to an empty vector negative control, were subsequently cotransfected into HEK293T cells with the pPACKH1 packaging plasmid mix (System Biosciences) according to the manufacturer's protocol. Four days post transfection lentiviral particles were purified from the cell medium, tiered and stored at −80° C. MCF-7 cells were transduced with the purified viral particles and stable cell lines were selected by growth in RPMI containing 10% FBS plus 1 μG/mL puromycin or 200 μG/mL hygromycin for pCDH-EF1-MCS-(PGK-Puro) and pCDH-UbC-MCS-EF1-Hygro, respectively.
(§2) MCF-7 Stable Cell Line Viability: MCF-7 cells were enumerated with a hemacytometer adjusted to a concentration of 40,000 cells per mL in Phenol Free RPMI containing 10% CSS with NEAA and Sodium Pyruvate. 16 microliters of the cell suspension was added to each well of a 384 well tissue culture treated white clear bottom polystyrene plate (Corning) using a Matrix 16 channel electronic pipette. The cells were incubated overnight to allow the cells to adhere. The following day, 16 microliters of Phenol Free RPMI containing 10% CSS with NEAA and Sodium Pyruvate was added to the wells of one plate, followed by 16 μL of CellTiter-Glo (Promega, Madison Wis.) luminescent cell viability reagent using a Matrix 16 channel electronic pipette. […] The “average” of the relative luminescence units (RLUs) of the wells are considered to be the baseline value at time=zero. In addition, a 10 point, 1:5 serial dilution in DMSO (Sigma-Aldrich) was performed using Matrix 12 channel electronic pipette, including DMSO only as […]. 4 μL of each dilution was then added to 196 μL of RPMI containing 10% CSS with NEAA and Sodium Pyruvate. 16 μL of medium containing compound was added to the cells at a final concentration ranging from 10 μM to 5 pM. Compound dilution in media and subsequent addition to cells were carried out using Matrix 12 channel electronic pipettes. After 5 day compound exposure, 16 μL of CellTiter-Glo (Promega, Madison Wis.) luminescent cell viability reagent was added to the cells using a Matrix 16 channel electronic pipette. CellTiter-Glo added to 32 μL of medium without cells was used to obtain a background value. […] The relative luminescence units (RLUs) of each well were measured, and relative proliferation (fold) of each sample was determined as follows: (RLU sample−RLU background)/(RLU at T=0)=relative proliferation
(§3) The UbC promoter is reported by the manufacturer (System Biosciences) to express low to moderate RNA levels while the EF1 promoter expresses high levels (System Biosciences).

[2] = tested on: MCF-7 cells stably expressing EF1 HA-ER-α L536P; conditions: for Percent inhibition compared to vehicle / Efficacy (Emax): EF1 HA-ER-α L536P; for Percent inhibition compared to vehicle: 5-Day Incubation; for Efficacy (Emax): Day 5 relative to Day 0; for EC50: Homo sapiens, MCF7, EF1 HA-ER-α L536P, read-out: Potency (EC50; nM)
Source text: as §1, §2, §3

[3] = tested on: MCF-7 cells stably expressing EF1 HA-ER-α L536R; conditions: for Percent inhibition compared to vehicle / Efficacy (Emax): EF1 HA-ER-α L536R; for Percent inhibition compared to vehicle: 5-Day Incubation; for Efficacy (Emax): Day 5 relative to Day 0; for EC50: Homo sapiens, MCF7, EF1 HA-ER-α L536R, read-out: Potency (EC50; nM)
Source text: as §1, §2, §3

[4] = tested on: MCF-7 cells stably expressing EF1 HA-ER-α Y537N; conditions: for Percent inhibition compared to vehicle: 5-Day Incubation; for EC50: Homo sapiens, MCF7, EF1 HA-ER-α Y537N, read-out: Potency (EC50; nM)
Source text: as §1, §2, §3

[5] = tested on: MCF-7 cells stably expressing UbC HA-ER-α E380Q; conditions: for EC50: Homo sapiens, MCF7, UbC HA-ER-α E380Q, read-out: Potency (EC50; nM); for Percent inhibition compared to vehicle / Efficacy (Emax): UbC HA-ER-α E380Q; for Percent inhibition compared to vehicle: 5-Day Incubation; for Efficacy (Emax): Day 5 relative to Day 0
Source text: as §1, §2, §3

[6] = tested on: MCF-7 cells stably expressing UbC HA-ER-α L536P; conditions: for EC50: Homo sapiens
Source text: as §1, §2, §3

[7] = tested on: MCF-7 cells stably expressing UbC HA-ER-α L536R; conditions: for EC50: Homo sapiens, MCF7, UbC HA-ER-α L536R, read-out: Potency (EC50; nM); for Percent inhibition compared to vehicle / Efficacy (Emax): UbC HA-ER-α L536R; for Percent inhibition compared to vehicle: 5-Day Incubation; for Efficacy (Emax): Day 5 relative to Day 0
Source text: as §1, §2, §3

[8] = tested on: MCF-7 cells stably expressing UbC HA-ER-α Y537N; conditions: for EC50: Homo sapiens, MCF7, UbC HA-ER-α Y537N, read-out: Potency (EC50; nM); for Percent inhibition compared to vehicle / Efficacy (Emax): UbC HA-ER-α Y537N; for Percent inhibition compared to vehicle: 5-Day Incubation; for Efficacy (Emax): Day 5 relative to Day 0
Source text: as §1, §2, §3

With `CC/C(=C(/c1ccc(/C=C/C(=O)O)cc1)c1ccc2[nH]ncc2c1)c1ccc(F)cc1Cl` [Compound 1-3, (E)-3-(4-((E)-2-(2-chloro-4-fluorophenyl)-1-(1H-indazol-5-yl)but-1-en-1-yl)phenyl)acrylic acid] as the molecule, how does the “Percent inhibition compared to vehicle” value ([1]; Agonist Mode, −E2) read?
Its value is 49%.

What about the “Efficacy (Emax)” value ([1]; Agonist Mode, −E2) of the same molecule?
Its value is 3.35 ± 0.07.

And the “Percent inhibition compared to vehicle” value ([1]; Antagonist Mode, +E2)?
Its value is 52%.

And the “Efficacy (Emax)” value ([1]; Antagonist Mode, +E2)?
Its value is 3.00 ± 0.18.

What about the EC50 ([1]; Agonist Mode, −E2) of the same molecule?
The EC50 was 18.6 ± 7.11 nM.

What about the EC50 ([1]; Antagonist Mode, +E2) of the same molecule?
Its EC50 is 76.2 ± 21.5 nM.

And the “Percent inhibition compared to vehicle” value ([2]; Agonist Mode, −E2)?
The value was 57%.

What about the “Efficacy (Emax)” value ([2]; Agonist Mode, −E2) of the same molecule?
Its value is 3.54 ± 0.45.

And the “Percent inhibition compared to vehicle” value ([2]; Antagonist Mode, +E2)?
Its value is 59%.

What about the “Efficacy (Emax)” value ([2]; Antagonist Mode, +E2) of the same molecule?
Its value is 3.74 ± 0.53.

And the EC50 ([2]; Agonist Mode, −E2)?
The EC50 was 18.2 ± 3.29 nM.

What about the EC50 ([2]; Antagonist Mode, +E2) of the same molecule?
The EC50 was 41.9 ± 8.25 nM.

What about the “Percent inhibition compared to vehicle” value ([3]; Agonist Mode, −E2) of the same molecule?
Its value is 47%.

And the “Efficacy (Emax)” value ([3]; Agonist Mode, −E2)?
The value was 3.61 ± 0.24.

What about the “Percent inhibition compared to vehicle” value ([3]; Antagonist Mode, +E2) of the same molecule?
Its value is 45%.

And the “Efficacy (Emax)” value ([3]; Antagonist Mode, +E2)?
The value was 3.77 ± 0.48.

And the EC50 ([3]; Agonist Mode, −E2)?
Its EC50 is 10.4 ± 6.52 nM.

And the EC50 ([3]; Antagonist Mode, +E2)?
Its EC50 is 15.6 ± 6.9 nM.

And the “Percent inhibition compared to vehicle” value ([4]; EF1 HA-ER-α Y537N, Agonist Mode, −E2)?
Its value is 48%.

What about the “Efficacy (Emax)” value ([4]; EF1 HA-ER-α Y537N, Agonist Mode, −E2, Day 5 relative to Day 0) of the same molecule?
The value was 3.11 ± 0.28.

What about the “Percent inhibition compared to vehicle” value ([4]; EF1 HA-ER-α Y537N, Antagonist Mode, +E2) of the same molecule?
Its value is 44%.

What about the EC50 ([4]; Agonist Mode, −E2) of the same molecule?
The EC50 was 97.3 ± 46.9 nM.

What about the EC50 ([4]; Antagonist Mode, +E2) of the same molecule?
Its EC50 is 125 ± 35.5 nM.

What about the EC50 ([5]; Agonist Mode, −E2) of the same molecule?
The EC50 was 1.3 ± 0.232 nM.

What about the EC50 ([5]; Antagonist Mode, +E2) of the same molecule?
Its EC50 is 8.38 ± 3.31 nM.

And the “Percent inhibition compared to vehicle” value ([5]; Agonist Mode, −E2)?
The value was 59%.

What about the “Efficacy (Emax)” value ([5]; Agonist Mode, −E2) of the same molecule?
Its value is 1.74 ± 0.24.

And the “Percent inhibition compared to vehicle” value ([5]; Antagonist Mode, +E2)?
The value was 76%.

What about the “Efficacy (Emax)” value ([5]; Antagonist Mode, +E2) of the same molecule?
The value was 1.72 ± 0.38.

And the “Percent inhibition compared to vehicle” value ([6]; Agonist Mode, −E2, 5-Day Incubation)?
The value was 50%.

What about the “Efficacy (Emax)” value ([6]; Agonist Mode, −E2, Day 5 relative to Day 0) of the same molecule?
The value was 1.58 ± 0.16.

What about the “Percent inhibition compared to vehicle” value ([6]; Antagonist Mode, +E2, 5-Day Incubation) of the same molecule?
The value was 72%.

What about the “Efficacy (Emax)” value ([6]; Antagonist Mode, +E2, Day 5 relative to Day 0) of the same molecule?
Its value is 1.69 ± 0.10.

And the EC50 ([6]; MCF7, Agonist Mode, −E2, read-out: Potency (EC50; nM))?
The EC50 was 0.713 ± 0.487 nM.

What about the EC50 ([6]; MCF7, read-out: Potency (EC50; nM), Antagonist Mode, +E2) of the same molecule?
Its EC50 is 7.37 ± 3.93 nM.

What about the EC50 ([7]; Agonist Mode, −E2) of the same molecule?
Its EC50 is 0.926 ± 0.428 nM.

What about the EC50 ([7]; Antagonist Mode, +E2) of the same molecule?
Its EC50 is 6.96 ± 3.76 nM.

What about the “Percent inhibition compared to vehicle” value ([7]; Agonist Mode, −E2) of the same molecule?
The value was 55%.

What about the “Efficacy (Emax)” value ([7]; Agonist Mode, −E2) of the same molecule?
The value was 1.73 ± 0.22.

And the “Percent inhibition compared to vehicle” value ([7]; Antagonist Mode, +E2)?
The value was 71%.

What about the “Efficacy (Emax)” value ([7]; Antagonist Mode, +E2) of the same molecule?
Its value is 1.71 ± 0.10.

And the EC50 ([8]; Agonist Mode, −E2)?
Its EC50 is 2.22 ± 0.55 nM.

And the EC50 ([8]; Antagonist Mode, +E2)?
The EC50 was 9.5 ± 3.61 nM.

What about the “Percent inhibition compared to vehicle” value ([8]; Agonist Mode, −E2) of the same molecule?
The value was 61%.

And the “Efficacy (Emax)” value ([8]; Agonist Mode, −E2)?
Its value is 1.67 ± 0.15.

What about the “Percent inhibition compared to vehicle” value ([8]; Antagonist Mode, +E2) of the same molecule?
Its value is 76%.

And the “Efficacy (Emax)” value ([8]; Antagonist Mode, +E2)?
Its value is 1.56 ± 0.04.
